Assay results from patent US7759391B2, “Pharmaceutical composition comprising thiacremonone for treating colon cancer” (Chungbuk National University Industry Academic Cooperation …, priority 2007, dated 2010).

Legend:
[1] = target: T1, NF-κB (Homo sapiens, UniProt Q04206); experiment: Gel electromobility shift assay (EMSA), NF-κB DNA binding activity, HCT116; assay type: cell-based; details: HCT116, 30-150 μg/ml, 1 h
T1 construct: endogenous in cells; host or cells: SW620 and HCT116 human colon cancer cells (ATCC)
T1 sequence (Q04206 whole entry): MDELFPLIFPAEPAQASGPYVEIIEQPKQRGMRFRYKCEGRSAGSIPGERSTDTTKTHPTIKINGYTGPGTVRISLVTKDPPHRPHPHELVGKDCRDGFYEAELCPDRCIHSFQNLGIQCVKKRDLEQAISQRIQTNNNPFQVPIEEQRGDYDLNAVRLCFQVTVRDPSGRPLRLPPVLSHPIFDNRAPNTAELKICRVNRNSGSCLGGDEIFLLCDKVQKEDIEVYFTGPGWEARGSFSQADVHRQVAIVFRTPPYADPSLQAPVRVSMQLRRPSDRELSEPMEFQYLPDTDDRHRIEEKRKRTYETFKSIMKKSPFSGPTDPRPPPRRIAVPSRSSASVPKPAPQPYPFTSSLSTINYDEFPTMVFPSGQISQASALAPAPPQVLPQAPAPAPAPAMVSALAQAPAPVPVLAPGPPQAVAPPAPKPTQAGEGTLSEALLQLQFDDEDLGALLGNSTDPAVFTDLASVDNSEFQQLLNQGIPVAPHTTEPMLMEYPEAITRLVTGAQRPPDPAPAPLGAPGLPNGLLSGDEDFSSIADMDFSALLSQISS
T1 sequence (P19838 1-433 partner limits assumed): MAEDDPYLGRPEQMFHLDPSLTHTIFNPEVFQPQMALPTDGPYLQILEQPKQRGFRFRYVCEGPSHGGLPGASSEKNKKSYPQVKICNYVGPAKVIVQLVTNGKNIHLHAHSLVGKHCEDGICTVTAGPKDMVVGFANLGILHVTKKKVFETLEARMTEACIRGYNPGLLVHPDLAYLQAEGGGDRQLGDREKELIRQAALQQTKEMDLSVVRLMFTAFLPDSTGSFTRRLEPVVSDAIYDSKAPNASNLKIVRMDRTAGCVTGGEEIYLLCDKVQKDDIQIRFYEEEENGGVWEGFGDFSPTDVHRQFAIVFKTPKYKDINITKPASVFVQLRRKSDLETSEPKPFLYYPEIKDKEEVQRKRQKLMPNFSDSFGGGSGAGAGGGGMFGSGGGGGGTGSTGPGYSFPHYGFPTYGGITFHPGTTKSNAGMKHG
Procedure: FIG. 1A: Nuclear extract from SW620 (panel a) and HCT116 (panel b) colon cancer cells treated with thiacremonone (30-150 μg/ml) for 1 h was incubated in binding reactions of ^32P-end-labeled oligonucleotide containing the κB sequence. The activation of NF-κB was investigated using EMSA as described in Materials and Methods. For competition assays, nuclear extracts from cells treated with TNF-α were incubated for 1 h before EMSA with unlabled NF-κB oligonucleotide or labeled NF-κB oligonucleotide. For supershift assays, nuclear extracts from cells treated with TNF-α were incubated for 1 h before EMSA with specific antibodies against the p50 and p65 NF-κB isoforms. SS indicates supershift assay using p65 antibody (panel c). Quantification of band intensities from three independent experimental results performed by densitometry (Imaging System) and the value under each band indicated as fold difference from the untreated control group.
Gel shift assay was performed according to the manufacturer's recommendations (Promega, Madison, Wis., USA). […] The relative density of the DNA-protein binding bands was scanned by densitometry using MyImage (SLB, Seoul, Korea), and quantified by Labworks 4.0 software (UVP Inc., Upland, Calif., USA).

[2] = tested on: SW620 colon cancer cells; experiment: Apoptosis detection, DAPI/TUNEL staining, SW620; assay type: cell-based, human; details: 24 h
Procedure: FIG. 3B: The apoptotic index was determined as the DAPI-stained TUNEL-positive cell number counted. Values are mean±S.E.M. of three experiments, each performed in triplicate. *P<0.05 indicates statistically significant differences from the untreated group.
Apoptosis assay was first performed by using 4,6-diamino-2-phenylindole (DAPI) staining. SW620 and HCT116 human colon cancer cells were cultured in the absence or presence of increasing concentrations of thiacremonone, and induction of apoptotic cell death was evaluated after 24 h. Apoptotic cells were determined by the morphological changes after DAPI staining under fluorescence microscopic observation (DAS microscope, 100× or 200×: Leica Microsystems, Inc., Deefield, Ill., USA). Apoptosis was also evaluated by TUNEL staining assay. In short, cells were cultured on 8-chamber slides. After treatment with thiacremonone (30-150 μg/ml) for 24 h, the cells were washed twice with PBS and fixed by incubation in 4% paraformaldehyde in PBS for 1 h at room temperature. TUNEL assays were performed by using the in situ Cell Death Detection Kit (Roche Diagonostics GmbH, Mannheim, Germany) according to manufacturer's instructions. Total number of cells in a given area was determined by using DAPI and TUNEL staining. The apoptotic index was determined as the number of DAPIstained TUNEL-positive cells divided by the total cell number counted ×100.

CC1=C(O)C(=O)C(C)(O)S1 (stereo not drawn) [thiacremonone, 2,4-dihydroxy-2,5-dimethyl-thiophene-3-one]
DNA binding activity of NF-κB [1]: decreased DNA binding activity of NF-κB in a dose-dependent manner | apoptotic cell number (DAPI-positive TUNEL-stained cells) ([2]; SW620, 30 μg/ml): 0% | apoptotic cell number (DAPI-positive TUNEL-stained cells) ([2]; SW620, 60 μg/ml): 0% | apoptotic cell number (DAPI-positive TUNEL-stained cells) ([2]; SW620, 90 μg/ml): 11% | apoptotic cell number (DAPI-positive TUNEL-stained cells) ([2]; SW620, 120 μg/ml): 25% | apoptotic cell number (DAPI-positive TUNEL-stained cells) ([2]; SW620, 150 μg/ml): 97%
